Data: ChEMBL document CHEMBL5465560, “Selectivity Literature for EUbOPEN Chemogenomic Library” (2024)

Experiments:
[1] = biological target: Tyrosine-protein kinase Fyn (Homo sapiens) (UniProt P06241); test: Selectivity interaction (ActivX KiNativ screen (kinase selectivity in THP-1 cell lysates)) EUB0000639a FYN; format: subcellular; settings: lysate, at 0.01 µM
[2] = biological target: Serine/threonine-protein kinase PAK 3 (Homo sapiens) (UniProt O75914); settings: at 10 µM
[3] = biological target: Epithelial discoidin domain-containing receptor 1 (Homo sapiens) (UniProt Q08345); settings: at 10 µM
Epithelial discoidin domain-containing receptor 1 (Homo sapiens), sequence (Q08345 whole entry, the tested form may be a part): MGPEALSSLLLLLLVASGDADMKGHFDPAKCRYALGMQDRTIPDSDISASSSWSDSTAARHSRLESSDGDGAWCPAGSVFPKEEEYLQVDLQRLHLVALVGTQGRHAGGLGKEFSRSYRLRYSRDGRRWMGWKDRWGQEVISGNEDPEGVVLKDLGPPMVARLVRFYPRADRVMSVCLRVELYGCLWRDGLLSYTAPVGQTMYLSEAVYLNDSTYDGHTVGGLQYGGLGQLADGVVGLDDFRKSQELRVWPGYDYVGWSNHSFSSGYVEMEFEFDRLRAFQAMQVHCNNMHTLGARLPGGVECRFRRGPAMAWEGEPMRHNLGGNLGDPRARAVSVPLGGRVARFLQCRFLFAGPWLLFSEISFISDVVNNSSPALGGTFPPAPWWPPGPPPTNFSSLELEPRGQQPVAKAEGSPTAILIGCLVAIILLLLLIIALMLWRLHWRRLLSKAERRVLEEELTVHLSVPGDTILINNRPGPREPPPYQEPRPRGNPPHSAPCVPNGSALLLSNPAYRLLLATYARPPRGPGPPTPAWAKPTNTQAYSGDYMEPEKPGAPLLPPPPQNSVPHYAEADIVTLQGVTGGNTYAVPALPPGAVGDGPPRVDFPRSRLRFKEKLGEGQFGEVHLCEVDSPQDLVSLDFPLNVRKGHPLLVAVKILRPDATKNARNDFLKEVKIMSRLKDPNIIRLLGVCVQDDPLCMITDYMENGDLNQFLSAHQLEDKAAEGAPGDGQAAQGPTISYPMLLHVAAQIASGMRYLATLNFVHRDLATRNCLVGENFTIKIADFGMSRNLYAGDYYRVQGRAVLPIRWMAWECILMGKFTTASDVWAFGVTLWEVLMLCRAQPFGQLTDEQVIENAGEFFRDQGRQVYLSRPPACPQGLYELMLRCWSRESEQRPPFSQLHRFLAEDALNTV

[4] = Selectivity interaction (KinomeScan (DiscoverX)) EUB0000229b CDPK1; settings: at 1 µM
[5] = biological target: Serine/threonine-protein kinase 33 (Homo sapiens) (UniProt Q9BYT3); test: Selectivity interaction (KinomeScan (DiscoverX)) EUB0000092b STK33; settings: at 10 µM
Serine/threonine-protein kinase 33 (Homo sapiens), sequence (Q9BYT3 whole entry, looked up): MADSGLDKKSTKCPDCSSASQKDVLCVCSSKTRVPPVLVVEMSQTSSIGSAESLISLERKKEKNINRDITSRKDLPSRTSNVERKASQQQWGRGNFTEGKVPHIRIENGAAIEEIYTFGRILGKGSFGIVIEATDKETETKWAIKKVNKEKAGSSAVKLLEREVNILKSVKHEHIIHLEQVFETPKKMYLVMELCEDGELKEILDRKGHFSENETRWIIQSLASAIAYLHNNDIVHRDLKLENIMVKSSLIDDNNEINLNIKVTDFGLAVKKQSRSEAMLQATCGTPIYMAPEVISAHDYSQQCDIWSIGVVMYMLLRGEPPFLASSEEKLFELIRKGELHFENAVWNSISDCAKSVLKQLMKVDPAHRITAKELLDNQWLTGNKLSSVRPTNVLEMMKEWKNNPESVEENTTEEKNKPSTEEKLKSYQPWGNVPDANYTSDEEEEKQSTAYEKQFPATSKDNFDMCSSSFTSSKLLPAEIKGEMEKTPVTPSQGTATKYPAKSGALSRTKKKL

[6] = test system: Fibroblast growth factor receptor 3 (Homo sapiens), P22607 [G697C]; test: (§1) Selectivity interaction (KinomeScan (DiscoverX)) EUB0000045b FGFR3
Fibroblast growth factor receptor 3 (Homo sapiens), P22607 [G697C], sequence (P22607 whole entry G697C): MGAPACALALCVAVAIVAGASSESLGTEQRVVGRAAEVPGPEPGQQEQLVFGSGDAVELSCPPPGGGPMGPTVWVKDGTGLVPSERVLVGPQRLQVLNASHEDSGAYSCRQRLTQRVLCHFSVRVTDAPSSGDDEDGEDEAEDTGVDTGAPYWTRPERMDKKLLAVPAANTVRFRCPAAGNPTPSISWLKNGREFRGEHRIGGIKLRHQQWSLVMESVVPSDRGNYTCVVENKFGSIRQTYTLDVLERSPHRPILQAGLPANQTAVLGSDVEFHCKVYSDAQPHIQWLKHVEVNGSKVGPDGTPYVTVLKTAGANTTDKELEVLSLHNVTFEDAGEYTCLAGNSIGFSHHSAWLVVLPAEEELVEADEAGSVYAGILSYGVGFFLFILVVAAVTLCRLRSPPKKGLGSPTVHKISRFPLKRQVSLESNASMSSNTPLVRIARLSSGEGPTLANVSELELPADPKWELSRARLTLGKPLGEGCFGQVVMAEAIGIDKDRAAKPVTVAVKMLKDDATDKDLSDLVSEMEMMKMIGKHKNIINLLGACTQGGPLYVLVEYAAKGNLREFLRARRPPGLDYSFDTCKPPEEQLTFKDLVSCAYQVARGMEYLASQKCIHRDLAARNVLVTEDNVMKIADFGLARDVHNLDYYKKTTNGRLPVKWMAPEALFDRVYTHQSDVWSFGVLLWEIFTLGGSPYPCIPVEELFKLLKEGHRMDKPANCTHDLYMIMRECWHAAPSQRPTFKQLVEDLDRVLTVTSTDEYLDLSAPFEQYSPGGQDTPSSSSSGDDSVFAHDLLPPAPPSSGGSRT

[7] = biological target: Fibroblast growth factor receptor 3 (Homo sapiens, UniProt P22607); test: as §1
Fibroblast growth factor receptor 3, sequence (P22607 23-806 limits assumed): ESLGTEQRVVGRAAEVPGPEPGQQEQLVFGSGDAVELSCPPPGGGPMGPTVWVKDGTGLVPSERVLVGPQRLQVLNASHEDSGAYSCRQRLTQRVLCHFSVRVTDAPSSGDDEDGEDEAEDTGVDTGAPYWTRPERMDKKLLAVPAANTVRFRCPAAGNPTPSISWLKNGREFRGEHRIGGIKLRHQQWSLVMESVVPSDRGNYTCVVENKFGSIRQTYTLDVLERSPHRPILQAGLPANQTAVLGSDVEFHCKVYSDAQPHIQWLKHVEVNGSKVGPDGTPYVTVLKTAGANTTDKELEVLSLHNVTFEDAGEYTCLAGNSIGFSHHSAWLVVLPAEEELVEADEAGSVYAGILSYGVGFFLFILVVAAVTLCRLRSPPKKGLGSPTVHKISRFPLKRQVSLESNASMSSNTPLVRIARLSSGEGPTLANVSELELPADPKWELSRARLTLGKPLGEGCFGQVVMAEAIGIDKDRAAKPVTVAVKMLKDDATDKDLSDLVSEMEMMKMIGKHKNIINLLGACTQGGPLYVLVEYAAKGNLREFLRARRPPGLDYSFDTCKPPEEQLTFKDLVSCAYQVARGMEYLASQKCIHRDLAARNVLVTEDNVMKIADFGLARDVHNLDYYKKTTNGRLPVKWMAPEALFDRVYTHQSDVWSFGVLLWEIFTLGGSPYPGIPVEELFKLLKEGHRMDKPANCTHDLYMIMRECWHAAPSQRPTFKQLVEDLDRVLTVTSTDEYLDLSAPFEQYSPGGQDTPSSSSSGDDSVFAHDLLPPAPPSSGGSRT

[8] = biological target: T1, MAP kinase-activated protein kinase 5 (Homo sapiens) (UniProt Q8IW41); test: Selectivity interaction (KinomeScan (DiscoverX)) EUB0000655a MAPKAPK5; settings: at 10 µM
T1 sequence (whole entry): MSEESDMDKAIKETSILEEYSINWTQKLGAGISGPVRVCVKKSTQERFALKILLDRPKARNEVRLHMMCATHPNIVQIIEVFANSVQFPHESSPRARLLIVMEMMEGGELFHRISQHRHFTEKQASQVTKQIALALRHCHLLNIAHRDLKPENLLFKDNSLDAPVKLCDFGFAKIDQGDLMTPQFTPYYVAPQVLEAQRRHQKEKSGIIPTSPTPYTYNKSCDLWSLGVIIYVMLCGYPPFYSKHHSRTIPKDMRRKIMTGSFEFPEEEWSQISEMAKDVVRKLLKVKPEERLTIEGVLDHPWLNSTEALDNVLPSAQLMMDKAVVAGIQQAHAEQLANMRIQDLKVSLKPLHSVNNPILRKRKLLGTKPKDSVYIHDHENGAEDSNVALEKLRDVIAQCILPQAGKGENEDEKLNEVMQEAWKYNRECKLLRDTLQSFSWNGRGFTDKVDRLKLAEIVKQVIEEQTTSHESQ

[9] = biological target: T2, Cyclin-dependent kinase-like 2 (Homo sapiens) (UniProt Q92772); test: Selectivity interaction (KinomeScan (DiscoverX)) EUB0000618a CDKL2; settings: at 10 µM
T2 sequence (whole entry): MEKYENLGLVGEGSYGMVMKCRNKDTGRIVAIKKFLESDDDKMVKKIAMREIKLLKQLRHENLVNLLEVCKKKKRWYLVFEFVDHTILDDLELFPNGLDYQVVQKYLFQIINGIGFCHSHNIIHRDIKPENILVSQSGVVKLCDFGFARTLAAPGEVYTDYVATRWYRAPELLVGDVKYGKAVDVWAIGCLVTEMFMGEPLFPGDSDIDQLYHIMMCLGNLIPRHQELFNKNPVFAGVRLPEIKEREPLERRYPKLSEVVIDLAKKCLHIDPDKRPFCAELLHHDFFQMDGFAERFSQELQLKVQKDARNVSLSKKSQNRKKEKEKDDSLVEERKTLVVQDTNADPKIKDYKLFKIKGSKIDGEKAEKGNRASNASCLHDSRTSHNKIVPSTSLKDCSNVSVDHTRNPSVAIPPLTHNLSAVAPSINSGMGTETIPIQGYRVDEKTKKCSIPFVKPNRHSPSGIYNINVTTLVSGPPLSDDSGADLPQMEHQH

[10] = biological target: Phosphatidylinositol 4,5-bisphosphate 3-kinase catalytic subunit beta isoform (Homo sapiens) (UniProt P42338); test: Selectivity interaction (KinomeScan (DiscoverX)) EUB0000607a PIK3CB; settings: at 10 µM
Phosphatidylinositol 4,5-bisphosphate 3-kinase catalytic subunit beta isoform (Homo sapiens), sequence (P42338 whole entry, looked up, canonical isoform): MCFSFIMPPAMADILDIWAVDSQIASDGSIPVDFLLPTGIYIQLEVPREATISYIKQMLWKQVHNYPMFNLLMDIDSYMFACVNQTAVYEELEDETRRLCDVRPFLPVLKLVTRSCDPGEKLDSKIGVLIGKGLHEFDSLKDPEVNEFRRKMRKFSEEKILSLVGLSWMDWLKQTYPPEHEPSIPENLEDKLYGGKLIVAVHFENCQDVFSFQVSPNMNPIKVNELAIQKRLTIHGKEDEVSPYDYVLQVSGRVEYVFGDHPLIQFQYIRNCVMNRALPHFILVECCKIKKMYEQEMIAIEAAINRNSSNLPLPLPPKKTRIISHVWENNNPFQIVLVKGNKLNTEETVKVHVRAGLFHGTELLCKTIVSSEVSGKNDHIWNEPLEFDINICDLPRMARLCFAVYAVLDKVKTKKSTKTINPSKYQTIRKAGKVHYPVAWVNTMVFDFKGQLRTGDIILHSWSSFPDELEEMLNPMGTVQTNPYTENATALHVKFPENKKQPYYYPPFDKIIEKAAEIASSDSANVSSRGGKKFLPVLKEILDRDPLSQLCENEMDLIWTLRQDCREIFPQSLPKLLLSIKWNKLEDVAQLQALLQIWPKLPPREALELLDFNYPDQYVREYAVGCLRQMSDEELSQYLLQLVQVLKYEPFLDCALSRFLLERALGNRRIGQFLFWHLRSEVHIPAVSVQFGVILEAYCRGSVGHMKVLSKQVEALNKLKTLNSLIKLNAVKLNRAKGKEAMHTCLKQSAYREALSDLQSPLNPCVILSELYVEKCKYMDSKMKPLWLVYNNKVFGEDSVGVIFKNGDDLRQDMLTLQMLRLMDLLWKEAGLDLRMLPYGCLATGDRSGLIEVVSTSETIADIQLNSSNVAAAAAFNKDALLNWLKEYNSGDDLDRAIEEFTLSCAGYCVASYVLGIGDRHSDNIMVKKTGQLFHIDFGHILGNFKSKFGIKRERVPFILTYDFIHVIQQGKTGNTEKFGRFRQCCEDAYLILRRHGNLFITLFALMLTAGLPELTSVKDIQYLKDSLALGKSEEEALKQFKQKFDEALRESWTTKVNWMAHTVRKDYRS

[11] = biological target: T3, PAN2-PAN3 deadenylation complex subunit PAN3 (Homo sapiens) (UniProt Q58A45); test: Selectivity interaction (Kinase panel (KiNativ target engagement assay in Jurkat cells)) EUB0001635a PAN3; format: cell-based; settings: Selectivity number of off-targets 0.0, Selectivity number of targets 233.0, Source Knowledge https://www.sciencedirect.com/science/article/pii/S2451945619300674?via%3Dihub, at 1 µM
T3 sequence (whole entry): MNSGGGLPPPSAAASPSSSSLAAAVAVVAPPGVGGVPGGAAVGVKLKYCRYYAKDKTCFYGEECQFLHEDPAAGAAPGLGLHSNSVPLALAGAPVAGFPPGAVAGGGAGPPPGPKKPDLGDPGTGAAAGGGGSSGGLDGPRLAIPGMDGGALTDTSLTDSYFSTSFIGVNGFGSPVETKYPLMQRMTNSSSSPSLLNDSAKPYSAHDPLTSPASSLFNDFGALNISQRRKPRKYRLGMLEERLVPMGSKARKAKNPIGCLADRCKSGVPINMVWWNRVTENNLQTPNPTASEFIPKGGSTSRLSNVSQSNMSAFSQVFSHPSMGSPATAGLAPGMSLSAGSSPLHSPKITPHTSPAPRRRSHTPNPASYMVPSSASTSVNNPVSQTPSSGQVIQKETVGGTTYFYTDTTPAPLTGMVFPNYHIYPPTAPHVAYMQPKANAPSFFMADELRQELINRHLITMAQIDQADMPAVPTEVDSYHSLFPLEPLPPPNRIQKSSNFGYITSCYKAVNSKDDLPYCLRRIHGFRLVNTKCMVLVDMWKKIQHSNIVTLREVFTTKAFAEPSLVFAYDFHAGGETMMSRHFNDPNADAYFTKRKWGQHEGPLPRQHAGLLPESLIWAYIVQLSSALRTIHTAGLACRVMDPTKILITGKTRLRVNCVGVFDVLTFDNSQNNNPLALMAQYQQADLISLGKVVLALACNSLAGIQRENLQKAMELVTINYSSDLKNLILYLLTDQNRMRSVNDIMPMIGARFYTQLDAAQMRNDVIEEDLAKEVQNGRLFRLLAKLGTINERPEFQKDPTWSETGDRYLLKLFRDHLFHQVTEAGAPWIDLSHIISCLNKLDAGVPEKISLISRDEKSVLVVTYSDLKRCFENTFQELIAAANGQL

Tyrosine-protein kinase Fyn (Homo sapiens), sequence (P06241 2-537 limits assumed): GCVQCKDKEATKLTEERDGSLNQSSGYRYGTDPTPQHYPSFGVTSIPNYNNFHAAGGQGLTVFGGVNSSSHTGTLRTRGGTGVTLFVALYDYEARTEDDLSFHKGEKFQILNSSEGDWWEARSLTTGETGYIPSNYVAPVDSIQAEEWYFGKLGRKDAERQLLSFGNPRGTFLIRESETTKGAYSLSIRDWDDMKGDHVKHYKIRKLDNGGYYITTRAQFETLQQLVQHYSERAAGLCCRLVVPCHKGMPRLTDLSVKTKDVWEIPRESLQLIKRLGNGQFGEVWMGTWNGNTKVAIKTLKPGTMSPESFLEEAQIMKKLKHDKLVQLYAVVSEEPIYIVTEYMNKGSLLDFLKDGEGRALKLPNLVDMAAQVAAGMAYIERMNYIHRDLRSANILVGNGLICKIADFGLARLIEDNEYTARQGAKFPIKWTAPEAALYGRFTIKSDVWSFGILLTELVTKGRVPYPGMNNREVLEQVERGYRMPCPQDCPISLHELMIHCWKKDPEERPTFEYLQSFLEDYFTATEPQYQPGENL

In the case of `CC[C@@H]1[C@H](F)C(=O)N[C@@H]1COc1nccc2cc(C(N)=O)c(OC)cc12` [ZIMLOVISERTIB], the % of inhibition [1] is reported as -8.5%.
Work on `CCN(CC)CCCCNc1ncc2cc(-c3cc(OC)cc(OC)c3)c(NC(=O)NC(C)(C)C)nc2n1` yielded a % of control [2] of 100%.
`COCC(=O)NC/C=C/c1ccc2ncnc(Nc3ccc(Oc4ccc(C)nc4)c(C)c3)c2c1` [CP-724714] showed a % of control [3] of 52%.
Work on `COc1cc(N(C)c2ccnc3ccc(C(F)(F)F)cc23)cc(OC)c1OC` yielded a % binding [4] of 74%.
With `CCC(=O)N1CCN(c2ccc(-n3c(=O)ccc4cnc5ccc(-c6cnc7ccccc7c6)cc5c43)cc2C(F)(F)F)CC1` the % of control [5] was 90%.
`C=CC(=O)Nc1cc(-n2c(=O)ccc3cnc4ccc(-c5ccc(NS(C)(=O)=O)cc5)cc4c32)ccc1C` gave a % of control ([6]; at 1 µM) of 26%, a % of control ([6]; at 10 µM) of 96% and a % of control ([7]; at 1 µM) of 100%. It also gave a % of control ([7]; at 10 µM) of 100%.
For `CN(C)CCOc1ccc(-c2nc(-c3ccncc3)c(-c3ccc4c(c3)CC/C4=N\O)[nH]2)cc1`, the % of control [8] was 100%.
Work on `O[C@H]1CC[C@H](Nc2ncc3nc(Nc4c(F)cc(F)cc4F)n([C@H]4CCOC4)c3n2)CC1` yielded a % of control [9] of 100%.
`CNC(=O)Nc1ccc(-c2nc(N3CC4CCC(C3)O4)c3cnn(C4CCC5(CC4)OCCO5)c3n2)cc1` showed a % of control [10] of 46%.
`C=CC(=O)Nc1ccc(C(=O)Nc2[nH]nc3c2CN(C(=O)N[C@H](CN(C)C)c2ccccc2)C3(C)C)cc1` gave a % of engagement [11] of -3.3%.
